Data taken from patent US8383637B2, “2-amino-quinazoline derivatives useful as inhibitors of β-secretase (BACE)” (Jansssen Pharmaceutica N.V., priority 2004, dated 2013).

Target: T1, β-secretase(BACE) (Homo sapiens, UniProt P56817)
T1 construct: purchased Panvera
Experiment: BACE Assay-1 (MCA-substrate, IC50)
Assay type: biochemical
Settings: procedure of Example 158; read-out: IC50 μM (158)
Method: The following standards are reagents were used in this assay: Sodium Citrate trisodium salt dihydrate (Sigma), Citric Acid monohydrate (Merck), PEG8000 (Sigma), MCA-substrate (Bachem), β-secretase (BACE) (Panvera), 96-well plate zwart (Costar (Elscolab)), StatVal (Bachem).
The following standard assay buffer solution was prepared and used in this assay: 0.05 M, pH 5.0 mixture of sodium citrate trisodium salt dihydrate (9.56 g), citric acid monohydrate (3.68 g) and PEG8000 (0.50 g).
The MCA-substrate stock solution was prepared by mixing 10 mg MCA-substrate with 5 mL DMSO for a final solution concentration of 2.0 mg/mL. The substrate work solution was prepared by mixing 0.1 mL substrate in 1.90 mL assay buffer for a final concentration of 0.05 mM. The β-secretase (BACE) work solution was prepared by mixing 8 μL BACE in 2 mL assay buffer for a final concentration of 10 μg/mL.
The screen procedure for this assay was as follows. 60 μL of assay buffer was pippeted into each well of a 96-well plate. To each well was then pipetted 1 μL of test compound at the selected concentration. To each well was then added 20 μL of the β-secretase work solution and 20 μL of the MCA-substrate stock solution.
The procedure for the blank was as follows. 80 μL of assay buffer was pipetted into each well to be used as a blank control. To each well was then added 1 μL of DMSO and 20 μL of MCA-substrate solution in each well.
The procedure for the positive control was as follows. 60 μL of assay buffer was pipetted into each well to be used as a positive control. To each well was then added 1 μL of DMSO, 20 μL of BACE work solution and 20 μL of MCA-substrate stock solution.
For test compounds, measured at multiple concentrations, the measured T0 and T60 values were used to calculate an IC50 value using Graphpad Software (or PIR).

T1 sequence (P56817 46-501): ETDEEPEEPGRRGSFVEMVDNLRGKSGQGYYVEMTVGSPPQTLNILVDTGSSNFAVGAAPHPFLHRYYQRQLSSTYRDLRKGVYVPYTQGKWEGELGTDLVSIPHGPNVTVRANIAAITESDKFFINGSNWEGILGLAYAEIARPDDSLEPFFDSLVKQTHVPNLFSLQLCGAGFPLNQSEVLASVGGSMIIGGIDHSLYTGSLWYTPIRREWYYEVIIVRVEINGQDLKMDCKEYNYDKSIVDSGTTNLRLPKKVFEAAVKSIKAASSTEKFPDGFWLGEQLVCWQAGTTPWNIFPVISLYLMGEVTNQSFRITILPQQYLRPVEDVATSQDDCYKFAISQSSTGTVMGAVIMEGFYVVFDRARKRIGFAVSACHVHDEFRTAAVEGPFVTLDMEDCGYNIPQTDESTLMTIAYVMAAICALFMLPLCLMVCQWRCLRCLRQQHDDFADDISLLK

SMILES	IC50
CCCN1Cc2cc(Oc3cccc(NS(=O)(=O)c4ccsc4C(=O)OC)c3)ccc2N=C1N [Compound 276]	> 10 µM
CN(C(=O)CCN1Cc2cc(C(=O)c3ccccc3)ccc2N=C1N)C1CCCC1 [Compound 24]	1.8 µM
CN(C(=O)CCN1Cc2cc(C(=O)c3ccccc3)ccc2N=C1N)C1CCCCCC1 [Compound 4]	2.5 µM
CN(C(=O)CCN1Cc2cc(-c3noc4cc(F)ccc34)ccc2N=C1N)C1CCCCC1 [Compound 37]	12 µM
CCCN1Cc2cc(Oc3cccc(NS(=O)(=O)c4ccc(Br)s4)c3)ccc2N=C1N [Compound 284]	0.87 µM
CCCN1Cc2cc(Oc3cccc(NCc4c(C)cc(C)cc4C)c3)ccc2N=C1N [Compound 500]	0.16 µM
CCCN1Cc2cc(Oc3cccc(NS(=O)(=O)c4ccc(NC(C)=O)cc4)c3)ccc2N=C1N [Compound 246]	> 10 µM
CCCN1Cc2cc(Oc3cccc(NS(=O)(=O)c4cc(S(=O)(=O)c5ccccc5)cs4)c3)ccc2N=C1N [Compound 285]	> 10 µM
CN(C(=O)CCCCN1Cc2cc(C(=O)c3ccccc3)ccc2N=C1N)C12CC3CC(CC(C3)C1)C2 [Compound 48]	4 µM
NC1=Nc2ccc(Oc3cccc(NS(=O)(=O)c4ccccc4)c3)cc2CN1CCCCO [Compound 126]	0.24 µM
CCCN1Cc2cc(Oc3cccc(NS(=O)(=O)c4csc5ccccc45)c3)ccc2N=C1N [Compound 245]	0.17 µM
CC(C)(C)OC(=O)NCCN1Cc2cc(Oc3cccc(NS(=O)(=O)c4ccccc4)c3)ccc2N=C1N [Compound 394]	0.87 µM
CN(C(=O)CCN1Cc2cc(C(=O)c3ccc(F)cc3)ccc2N=C1N)C1CCCCCC1 [Compound 5]	5.1 µM
NC1=Nc2ccc(Oc3cccc(NCC4CCCCC4)c3)cc2CN1CCCCO [Compound 95]	0.31 µM
Cc1cc(C)c(S(=O)(=O)Nc2cccc(Oc3ccc4c(c3)CN(CCCCCO)C(N)=N4)c2)c(C)c1 [Compound 383]	0.65 µM
CCCCS(=O)(=O)Nc1cccc(Oc2ccc3c(c2)CN(CCC)C(N)=N3)c1 [Compound 239]	0.35 µM
CN(C1CCCCC1)S(=O)(=O)CCN1Cc2cc(C(=O)c3ccccc3)ccc2N=C1N [Compound 57, 2-(2-Amino-6-benzoyl-4H-quinazolin-3-yl)-ethanesulfonic acid cyclohexyl-methyl-amide]	1.4 µM
CCCN1Cc2cc(-c3cccc(NS(=O)(=O)c4ccccc4)c3)ccc2N=C1N [Compound 397]	3.98 µM
NC1=Nc2ccc(Oc3cccc(NC(=O)OCc4ccccc4)c3)cc2CN1CCCCC(=O)N(C1CCCCC1)C1CCCCC1 [Compound 75]	0.66 µM
CCCN1Cc2cc(Oc3cccc(NS(=O)(=O)c4ccc5c(c4)OCCO5)c3)ccc2N=C1N [Compound 275]	> 10 µM
CCCN1Cc2cc([S+]([O-])c3cccc(NS(=O)(=O)c4ccccc4)c3)ccc2N=C1N (centres unmarked) [Compound 387, N-[3-(2-Amino-3-propyl-3,4-dihydro-quinazoline-6-sulfinyl)-phenyl]-benzenesulfonamide]	3.3 µM

SMILES	IC50
CCCN1Cc2cc(Oc3cccc(NS(=O)(=O)c4ccccc4C(F)(F)F)c3)ccc2N=C1N [Compound 277]	0.7 µM
CCCN1Cc2cc(Sc3cccc(NS(=O)(=O)c4c(C)cc(C)cc4C)c3)ccc2N=C1N [Compound 497]	0.011 µM
CCCN1Cc2cc(Oc3cccc(NS(=O)(=O)c4ccc(OC(F)(F)F)cc4)c3)ccc2N=C1N [Compound 283]	> 10 µM
CN(Cc1cccc2ccccc12)C(=O)CCN1Cc2cc(C(=O)c3ccccc3)ccc2N=C1N [Compound 42]	15 µM
CCCN1Cc2cc(Oc3cccc(NS(=O)(=O)c4cccc5ccccc45)c3)ccc2N=C1N [Compound 274]	> 10 µM
CN(C(=O)CCN1Cc2cc(C(=O)c3ccccc3)ccc2N=C1N)C12CC3CC(CC(C3)C1)C2 [Compound 41]	5.1 µM
CCCN1Cc2cc(Oc3cccc(NS(=O)(=O)c4ccc(C)cc4OC)c3)ccc2N=C1N [Compound 273]	0.17 µM
CCCN1Cc2cc(Oc3cccc(NS(C)(=O)=O)c3)ccc2N=C1N [Compound 237]	> 10 µM
CCCN1Cc2cc(Oc3cccc(NS(=O)(=O)c4cc(OC)ccc4OC)c3)ccc2N=C1N [Compound 248]	6.9 µM
CCCN1Cc2cc(Oc3cccc(NS(=O)(=O)c4ccc(-c5ccno5)s4)c3)ccc2N=C1N [Compound 278]	> 10 µM
CCCN1Cc2cc(Oc3cccc(NS(=O)(=O)c4ccccc4S(C)(=O)=O)c3)ccc2N=C1N [Compound 250]	> 10 µM
NC1=Nc2ccc(C(=O)c3ccccc3)cc2CN1CCCCC(=O)NC1CCCCC1 [Compound 31]	2.3 µM
CCCN1Cc2cc(Oc3cccc(NS(=O)(=O)Cc4ccccc4)c3)ccc2N=C1N [Compound 269]	0.35 µM
CCCN1Cc2cc(-c3ccccc3CCNS(=O)(=O)c3ccccc3)ccc2N=C1N [Compound 385, N-{2-[2-(2-Amino-3-propyl-3,4-dihydro-quinazolin-6-yl)-phenyl]-ethyl}-benzenesulfonamide]	0.28 µM
CCOC(=O)N1CCC(N2Cc3cc(Oc4cccc(NS(=O)(=O)c5c(C)cc(C)cc5C)c4)ccc3N=C2N)CC1 [Compound 362]	0.53 µM
CN(C(=O)CCCCN1Cc2cc(Oc3cccc(NCC4CCCCC4)c3)ccc2N=C1N)C1CCCCC1 [Compound 96]	0.78 µM
COc1cc(OC)cc(Oc2ccc3c(c2)CN(CCCCC(=O)N(C)C2CCCCC2)C(N)=N3)c1 [Compound 288]	> 10 µM
CCCN1Cc2cc(OCc3cccc(NS(=O)(=O)c4ccccc4)c3)ccc2N=C1N [Compound 203]	4.7 µM
CCCN1Cc2cc(Oc3cccc(NS(=O)(=O)c4ccc(-c5ccccn5)s4)c3)ccc2N=C1N [Compound 251]	> 10 µM
CCCN1Cc2cc(Oc3cccc(NS(=O)(=O)c4cccc(OC(F)(F)F)c4)c3)ccc2N=C1N [Compound 252]	1 µM

Next, values leading:

IC50	SMILES
0.15 µM	CN(C(=O)CCCCN1Cc2cc(Oc3cccc(NC(=O)OCc4ccccc4)c3)ccc2N=C1N)C1CCCCC1 [Compound 133]
0.081 µM	CCCN1Cc2cc(Oc3cccc(NCc4ccccc4)c3)ccc2N=C1N [Compound 507]
0.71 µM	NC1=Nc2ccc(Oc3cccc(NS(=O)(=O)c4ccccc4)c3)cc2CN1CCCCCO [Compound 380]
11 µM	CCCN1Cc2cc(Oc3cccc(NS(=O)(=O)c4ccc(-c5ccccc5)cc4)c3)ccc2N=C1N [Compound 280]
17 µM	CN(C(=O)CCN1Cc2ccccc2N=C1N)c1ccccc1 [Compound 800]
2.6 µM	CN(C1CCCCC1)S(=O)(=O)CCN1Cc2cc(Oc3cccc(NC(=O)OCc4ccccc4)c3)ccc2N=C1N [Compound 71]
> 10 µM	CCCN1Cc2cc(Oc3cccc(NS(=O)(=O)c4cccc(Br)c4)c3)ccc2N=C1N [Compound 282]
> 10 µM	CCCN1Cc2cc(Oc3cccc(NS(=O)(=O)c4c(C)noc4C)c3)ccc2N=C1N [Compound 242]
9.8 µM	CN(CCc1ccccc1)C(=O)CCN1Cc2cc(C(=O)c3ccccc3)ccc2N=C1N [Compound 40]
2.1 µM	CCCN1Cc2cc(Oc3cccc(NS(=O)(=O)c4ccc5ccccc5c4)c3)ccc2N=C1N [Compound 244]
12 µM	CC(C)N(C)C(=O)CCN1Cc2cc(C(=O)c3ccccc3)ccc2N=C1N [Compound 22]
26 µM	CN(C(=O)CCN1Cc2cc(C(=O)c3ccc(F)cc3)ccc2N=C1N)C1CCCCC1 [Compound 2]
7.2 µM	CN(Cc1ccccc1)C(=O)CCN1Cc2cc(C(=O)c3ccccc3)ccc2N=C1N [Compound 43]
2.6 µM	COc1cc(C)ccc1S(=O)(=O)Nc1cccc(Oc2ccc3c(c2)CN(CCCCCO)C(N)=N3)c1 [Compound 355]
0.033 µM	CCCN1Cc2cc(Oc3cccc(NS(=O)(=O)c4c(C)cc(C)cc4C)c3)ccc2N=C1N [Compound 243]
0.18 µM	CCCN1Cc2cc(Oc3cccc(NCc4ccc(OC)cc4)c3)ccc2N=C1N [Compound 502]
1.3 µM	NC1=Nc2ccc(C(=O)c3ccccc3)cc2CN1CCC(=O)N(C1CCCCC1)C1CCCCC1 [Compound 39]
5.5 µM	CN(C(=O)CCN1Cc2cc(C(=O)c3ccc(F)cc3)ccc2N=C1N)C1CCCC1 [Compound 25]
3.4 µM	CCCN1Cc2cc(Oc3cccc(NCc4c(OC)cccc4OC)c3)ccc2N=C1N [Compound 501]
2.3 µM	CN(C(=O)CCN1Cc2cc(Cc3ccccc3)ccc2N=C1N)C1CCCCC1 [Compound 36, 3-(2-Amino-6-benzyl-4H-quinazolin-3-yl)-N-cyclohexyl-N-methyl-propionamide]
0.13 µM	CC(C)(C)OC(=O)N1CCC(CN2Cc3cc(Oc4cccc(NS(=O)(=O)c5ccccc5)c4)ccc3N=C2N)CC1 [Compound 384]
33 µM	CN(C(=O)CCN1Cc2ccc(C(=O)c3ccccc3)cc2N=C1N)C1CCCCC1 [Compound 35]
0.52 µM	CCCN1Cc2cc(Oc3cccc(NS(=O)(=O)c4ccc(OC)cc4)c3)ccc2N=C1N [Compound 272]
> 10 µM	CCCN1Cc2cc(Oc3cccc(NS(=O)(=O)c4cccc5c(N(C)C)cccc45)c3)ccc2N=C1N [Compound 253]
